Counter-ions that a name gives are not always drawn. Like-named read-outs stand apart in the source and are kept apart here.
What was measured:
recombinant human PARP1 = recombinant human PARP1 (Homo sapiens, UniProt P09874); test: PARP1 fluorescence polarization binding assay; details: GST-tagged PARP1 20 nM, PARP1-FL probe 3 nM
Outline: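 GST-tagged human PARP1 (20 nM final) preincubated 30 min at RT with compound (10-point 3-fold series or single concentration). PARP1-FL probe (3 nM final) added, then 4 h at RT. Buffer: 50 mM Tris pH 8.0, 10 mM MgCl2, 150 mM NaCl, 0.001% Triton X-100. FP mP values normalized to controls; IC50 from four-parameter fit.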

[1] = system: DLD-1 wild-type colorectal adenocarcinoma cells; test: Cell viability assay (Cell Titer-Glo, 7 days), DLD-1 wild-type; format: cell-based; details: Homo sapiens, 168 h, DLD-1 wild-type cells, read-out: DLD-1 wild-type % inh at 10 μM
[2] = system: DLD-1 BRCA2(−/−) colorectal adenocarcinoma cells; test: Cell viability assay (Cell Titer-Glo, 7 days), DLD-1 BRCA2(−/−); format: cell-based; details: Homo sapiens, 168 h, DLD-1 BRCA2(−/−) cells
recombinant human PARP2 = recombinant human PARP2 (Homo sapiens, UniProt Q9UGN5); test: PARP2 fluorescence polarization binding assay; details: read-out: PARP2 % inh at 10 μM
recombinant human PARP2, sequence (Q9UGN5 whole entry): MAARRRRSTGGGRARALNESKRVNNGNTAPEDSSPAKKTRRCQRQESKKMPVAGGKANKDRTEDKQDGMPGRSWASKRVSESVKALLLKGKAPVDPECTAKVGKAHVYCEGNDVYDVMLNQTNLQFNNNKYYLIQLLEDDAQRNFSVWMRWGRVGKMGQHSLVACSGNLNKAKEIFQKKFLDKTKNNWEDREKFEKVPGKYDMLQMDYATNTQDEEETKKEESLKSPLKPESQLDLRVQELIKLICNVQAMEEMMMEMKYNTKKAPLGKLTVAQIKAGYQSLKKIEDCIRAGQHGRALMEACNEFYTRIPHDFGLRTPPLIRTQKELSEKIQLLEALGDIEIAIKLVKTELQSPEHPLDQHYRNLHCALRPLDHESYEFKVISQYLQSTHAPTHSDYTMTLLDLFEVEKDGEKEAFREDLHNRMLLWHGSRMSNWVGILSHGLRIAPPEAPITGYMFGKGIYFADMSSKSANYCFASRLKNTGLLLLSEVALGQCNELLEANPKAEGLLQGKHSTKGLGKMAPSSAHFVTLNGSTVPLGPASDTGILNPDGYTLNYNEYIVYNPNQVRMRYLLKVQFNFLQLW

[3] = percent inhibition at 10 μM, fluorescence polarization, GST-tagged PARP2 20 nM, PARP1-FL probe 3 nM

recombinant human PARP1, sequence (P09874 whole entry): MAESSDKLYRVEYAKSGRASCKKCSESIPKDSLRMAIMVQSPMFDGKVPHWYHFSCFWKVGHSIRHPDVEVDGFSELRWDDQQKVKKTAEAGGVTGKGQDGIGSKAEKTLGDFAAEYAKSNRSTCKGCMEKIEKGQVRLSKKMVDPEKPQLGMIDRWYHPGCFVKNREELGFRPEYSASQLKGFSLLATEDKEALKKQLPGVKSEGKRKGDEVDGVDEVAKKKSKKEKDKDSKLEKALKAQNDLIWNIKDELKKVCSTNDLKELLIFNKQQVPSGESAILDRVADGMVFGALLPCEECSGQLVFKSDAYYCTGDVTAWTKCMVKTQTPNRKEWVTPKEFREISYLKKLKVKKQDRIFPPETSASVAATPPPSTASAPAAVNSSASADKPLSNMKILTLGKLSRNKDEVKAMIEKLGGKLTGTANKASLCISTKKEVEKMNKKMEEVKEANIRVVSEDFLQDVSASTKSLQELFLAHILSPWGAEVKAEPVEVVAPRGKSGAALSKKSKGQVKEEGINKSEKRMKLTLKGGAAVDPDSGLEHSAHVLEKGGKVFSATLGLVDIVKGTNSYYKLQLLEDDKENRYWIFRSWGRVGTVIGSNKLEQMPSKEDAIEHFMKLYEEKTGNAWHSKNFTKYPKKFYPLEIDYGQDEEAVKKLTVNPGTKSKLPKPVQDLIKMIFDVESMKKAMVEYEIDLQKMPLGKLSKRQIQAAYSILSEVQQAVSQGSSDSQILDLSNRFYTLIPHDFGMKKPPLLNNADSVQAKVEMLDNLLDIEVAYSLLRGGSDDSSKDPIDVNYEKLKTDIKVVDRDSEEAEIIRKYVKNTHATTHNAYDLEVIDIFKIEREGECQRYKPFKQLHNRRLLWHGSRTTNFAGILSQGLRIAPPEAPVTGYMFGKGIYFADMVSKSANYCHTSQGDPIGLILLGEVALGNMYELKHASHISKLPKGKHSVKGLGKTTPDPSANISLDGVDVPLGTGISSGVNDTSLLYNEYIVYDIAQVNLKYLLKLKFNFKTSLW

Row | IC50 (recombinant human PARP1) | IC50 [2] | inhibition at 10 µM (recombinant human PARP2; [3]) | Structure (SMILES) | inhibition at 10 µM [1] | inhibition at 10 µM (recombinant human PARP2)
1 | < 100 nM | ≥ 3000 nM | < 33% | CCNC(=O)Nc1cc(CN2CCN(c3ccc(C(F)(F)F)cn3)CC2)ccn1 [Compound 273, 1-ethyl-3-(4-((4-(5-(trifluoromethyl)pyridin-2-yl)piperazin-1-yl)methyl)pyridin-2-yl) urea] | < 33% | 
2 | < 100 nM | < 300 nM | < 33% | [2H]C([2H])([2H])c1nc(C(=O)NC)ccc1N1CCN(Cc2ccnc(NC(=O)NCC)c2)CC1 [Compound 274, 5-(4-((2-(3-ethylureido)pyridin-4-yl)methyl)piperazin-1-yl)-N-methyl-6-(methyl-d3) picolinamide hemiformate] | < 33% | 
3 | < 100 nM | < 300 nM | < 33% | CCNC(=O)Nc1cc(CN2CCN(c3ccc(C#N)cn3)CC2)ncn1 [Compound 275, 1-(6-((4-(5-cyanopyridin-2-yl)piperazin-1-yl)methyl)pyrimidin-4-yl)-3-ethylurea] | < 33% | 
4 | < 100 nM | ≥ 3000 nM | < 33% | CCNC(=O)Nc1ncc(CN2CCN(c3ccc(C(=O)NC)nc3C)CC2)n1C [Compound 277, 5-(4-((2-(3-ethylureido)-1-methyl-1H-imidazol-5-yl)methyl)piperazin-1-yl)-N,6-dimethylpicolinamide] | < 33% | 
5 | < 100 nM | < 300 nM | < 33% | CCNC(=O)Nc1ncnc(CN2CCN(c3ccc(C(=O)NC)nc3F)CC2)c1F [Compound 278, 5-(4-((6-(3-ethylureido)-5-fluoropyrimidin-4-yl)methyl)piperazin-1-yl)-6-fluoro-N-methylpicolinamide] | < 33% | 

Row | Structure (SMILES) | IC50 (recombinant human PARP1) | IC50 [2] | inhibition at 10 µM (recombinant human PARP2; [3]) | inhibition at 10 µM [1] | inhibition at 10 µM (recombinant human PARP2)
6 | CCNC(=O)Nc1cc(CN2CCN(c3ccc(C#N)cc3F)CC2)ccn1 [Compound 276, 1-(4-((4-(4-cyano-2-fluorophenyl)piperazin-1-yl)methyl)pyridin-2-yl)-3-ethylurea trifluoroacetate] | < 100 nM | < 300 nM |  | < 33% | < 33%

Reference: patent US20240343710A1, “HETEROCYCLIC COMPOUNDS AND METHODS OF USE THEREOF” (1cBio, Inc., priority 2023, published 2024)
